Like-named read-outs stand apart in the source and are kept apart here.
Legend:
5HT2A receptor [1] = target: T1, 5HT2A receptor (Homo sapiens, UniProt P28223); assay: biochemical; format: binding; parameters: expressed in transfected cells; crude membranes; conditions: secondary radioligand binding, Ki from IC50 by Cheng-Prusoff
5HT2A receptor [2] = target: T1, 5HT2A receptor; assay: cell-based; parameters: expressed in transfected cells; host or cells: HEK293T cells, transient co-transfection; conditions: BRET2 Gαq dissociation, HEK293T cells; for Emax: HEK-293T, normalized to 5-HT, read-out: 5HT2A Gq Emax (%)
5HT2A receptor [3] = target: T1, 5HT2A receptor; assay: cell-based; parameters: expressed in transfected cells; host or cells: HEK293T cells, transient co-transfection; conditions: BRET1 beta-arrestin2 recruitment, HEK293T cells; for Emax: HEK-293T, normalized to 5-HT, read-out: 5HT2A β-Arr Emax (%)

T1 sequence (P28223 whole entry): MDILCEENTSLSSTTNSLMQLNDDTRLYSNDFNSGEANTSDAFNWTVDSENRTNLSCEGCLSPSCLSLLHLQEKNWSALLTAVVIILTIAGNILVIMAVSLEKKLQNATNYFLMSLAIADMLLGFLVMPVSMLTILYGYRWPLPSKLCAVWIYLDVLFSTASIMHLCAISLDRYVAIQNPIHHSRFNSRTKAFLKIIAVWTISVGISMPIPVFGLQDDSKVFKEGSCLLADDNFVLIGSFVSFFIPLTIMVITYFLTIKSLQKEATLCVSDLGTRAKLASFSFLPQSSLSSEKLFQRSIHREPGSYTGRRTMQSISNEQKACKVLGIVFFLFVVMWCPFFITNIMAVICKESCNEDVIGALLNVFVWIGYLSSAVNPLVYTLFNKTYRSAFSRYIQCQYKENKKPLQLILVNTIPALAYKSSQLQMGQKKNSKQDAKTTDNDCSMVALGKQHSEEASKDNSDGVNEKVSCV

Structure (SMILES)	Ki (5HT2A receptor [1]; read-out: 5HT2A Ki) [nM]	EC50 (5HT2A receptor [2]; read-out: 5HT2A Gq EC50) [nM]	Emax (5HT2A receptor [2]) [%]	EC50 (5HT2A receptor [3]; read-out: 5HT2A β-Arr EC50) [nM]	Emax (5HT2A receptor [3]) [%]	Ki (5HT2A receptor [1]; 5HT2A Ki (nM)) [nM]	EC50 (5HT2A receptor [3]; 5HT2A β-Arr EC50 (nM)) [nM]	EC50 (5HT2A receptor [2]; 5HT2A Gq EC50 (nM)) [nM]
CN1CCC=C(c2c[nH]c3c(F)cccc23)C1 [Example 56, 7-fluoro-3-(1-methyl-1,2,5,6-tetrahydropyridin-3-yl)-1H-indole]	59.8	16.8	96.9	57.7	49.5			
CN1CCC=C(c2c[nH]c3c(C(F)(F)F)cccc23)C1 [Example 59, 3-(1-methyl-1,2,5,6-tetrahydropyridin-3-yl)-7-(trifluoromethyl)-1H-indole]	25.8	17.8	81.7	75.5	56.9			
CCc1[nH]c2ccccc2c1C1=CCCNC1 [Example 62, 2-ethyl-3-(1,2,5,6-tetrahydropyridin-3-yl)-1H-indole]		75.7	49.1		45.1	810	633	
Clc1[nH]c2ccccc2c1C1=CCCNC1 [Example 64, 2-chloro-3-(1,2,5,6-tetrahydropyridin-3-yl)-1H-indole]			91.8		60.2	186	219	61.9
Clc1cccc2c(C3=CCCN(Cc4ccccc4)C3)c[nH]c12 [Example 67, 3-(1-benzyl-1,2,5,6-tetrahydropyridin-3-yl)-7-chloro-1H-indole]			48.8		46.6	90.2	756	44.1
Cc1cccc2c(C3=CCCN(Cc4ccccc4)C3)c[nH]c12 [Example 68, 3-(1-benzyl-1,2,5,6-tetrahydropyridin-3-yl)-7-methyl-1H-indole]			40.2		42.4	115	490	127
CCc1cccc2c(C3=CCCN(Cc4ccccc4)C3)c[nH]c12 [Example 69, 3-(1-benzyl-1,2,5,6-tetrahydropyridin-3-yl)-7-ethyl-1H-indole]			49.7		63.5	199	1740	98.2
Fc1cccc2c(C3=CCCN(Cc4ccccc4)C3)c[nH]c12 [Example 73, 3-(1-benzyl-1,2,5,6-tetrahydropyridin-3-yl)-7-fluoro-1H-indole]			81.9		56.5	151	331	116
Cc1ccc2c(C3=CCCNC3)n[nH]c2c1 [Example 76, 6-methyl-3-(1,2,5,6-tetrahydropyridin-3-yl)-1H-indazole]			93.6		88.7	2460	1500	118
Clc1ccc2c(C3=CCCNC3)n[nH]c2c1 [Example 77, 6-chloro-3-(1,2,5,6-tetrahydropyridin-3-yl)-1H-indazole]		38.9	93.9		76.7	439	430	
Fc1ccc2c(C3=CCCNC3)n[nH]c2c1 [Example 78, 6-fluoro-3-(1,2,5,6-tetrahydropyridin-3-yl)-1H-indazole]	57.6	11.5	79.4	115	59.4			
N#Cc1ccc2c(C3=CCCNC3)n[nH]c2c1 [Example 79, 3-(1,2,5,6-tetrahydropyridin-3-yl)-1H-indazole-6-carbonitrile]			48.6		82.1	441	1710	874
Cc1cccc2[nH]nc(C3=CCCNC3)c12 [Example 80, 4-methyl-3-(1,2,5,6-tetrahydropyridin-3-yl)-1H-indazole]		73.8	83.4		71.8	254	698	
Fc1cccc2[nH]nc(C3=CCCNC3)c12 [Example 81, 4-fluoro-3-(1,2,5,6-tetrahydropyridin-3-yl)-1H-indazole]		26.5	92.3		75.7	348	211	
N#Cc1cccc2[nH]nc(C3=CCCNC3)c12 [Example 82, 3-(1,2,5,6-tetrahydropyridin-3-yl)-1H-indazole-4-carbonitrile]		12	95.9		87.9	153	562	
COc1cccc2[nH]nc(C3=CCCNC3)c12 [Example 83, 4-methoxy-3-(1,2,5,6-tetrahydropyridin-3-yl)-1H-indazole]	78.8	12.5	81.7	109	75.9			

Structure (SMILES)	Ki (5HT2A receptor [1]; read-out: 5HT2A Ki) [nM]	EC50 (5HT2A receptor [2]; read-out: 5HT2A Gq EC50) [nM]	Emax (5HT2A receptor [2]) [%]	EC50 (5HT2A receptor [3]; read-out: 5HT2A β-Arr EC50) [nM]	Emax (5HT2A receptor [3]) [%]	Ki (5HT2A receptor [1]; 5HT2A Ki (nM)) [nM]	EC50 (5HT2A receptor [3]; 5HT2A β-Arr EC50 (nM)) [nM]	EC50 (5HT2A receptor [2]; 5HT2A Gq EC50 (nM)) [nM]
Clc1ccc2[nH]nc(C3=CCCNC3)c2c1 [Example 84, 5-chloro-3-(1,2,5,6-tetrahydropyridin-3-yl)-1H-indazole]	25.3	3.4	94.8	52.4	97			
Fc1ccc2[nH]nc(C3=CCCNC3)c2c1 [Example 85, 5-fluoro-3-(1,2,5,6-tetrahydropyridin-3-yl)-1H-indazole]	33.4	2.8	88.3	68.6	96			
N#Cc1ccc2[nH]nc(C3=CCCNC3)c2c1 [Example 86, 3-(1,2,5,6-tetrahydropyridin-3-yl)-1H-indazole-5-carbonitrile]		15.9	90.2		95.1	370	354	
Cc1cccc2c(C3=CCCNC3)n[nH]c12 [Example 88, 7-methyl-3-(1,2,5,6-tetrahydropyridin-3-yl)-1H-indazole]		52.8	72.6		64.8	211	227	
Clc1cccc2c(C3=CCCNC3)n[nH]c12 [Example 89, 7-chloro-3-(1,2,5,6-tetrahydropyridin-3-yl)-1H-indazole]	85.2	11.4	93.7	83.5	85.1			
Fc1cccc2c(C3=CCCNC3)n[nH]c12 [Example 90, 7-fluoro-3-(1,2,5,6-tetrahydropyridin-3-yl)-1H-indazole]		9.2	95.6	86	70	1390		
N#Cc1cccc2c(C3=CCCNC3)n[nH]c12 [Example 91, 3-(1,2,5,6-tetrahydropyridin-3-yl)-1H-indazole-7-carbonitrile]		17.2	126		86	237	105	
CN1CCC=C(c2n[nH]c3cc(F)ccc23)C1 [Example 95, 6-fluoro-3-(1-methyl-1,2,5,6-tetrahydropyridin-3-yl)-1H-indazole]	47.3	21.1	47.1	467	27			
Cc1cccc2[nH]nc(C3=CCCN(C)C3)c12 [Example 97, 4-methyl-3-(1-methyl-1,2,5,6-tetrahydropyridin-3-yl)-1H-indazole]		80.4	69		64.6	786	605	
CN1CCC=C(c2n[nH]c3cccc(F)c23)C1 [Example 98, 4-fluoro-3-(1-methyl-1,2,5,6-tetrahydropyridin-3-yl)-1H-indazole]			58.5		54	835	483	105
CN1CCC=C(c2n[nH]c3cccc(C#N)c23)C1 [Example 99, 3-(1-methyl-1,2,5,6-tetrahydropyridin-3-yl)-1H-indazole-4-carbonitrile]		96.4	80		43.8	491	1010	
COc1cccc2[nH]nc(C3=CCCN(C)C3)c12 [Example 100, 4-methoxy-3-(1-methyl-1,2,5,6-tetrahydropyridin-3-yl)-1H-indazole]		91.6	63.9		52.4	349	460	
CN1CCC=C(c2n[nH]c3ccc(Cl)cc23)C1 [Example 101, 5-chloro-3-(1-methyl-1,2,5,6-tetrahydropyridin-3-yl)-1H-indazole]		16.2	74.2		80.7	141	292	
CN1CCC=C(c2n[nH]c3ccc(F)cc23)C1 [Example 102, 5-fluoro-3-(1-methyl-1,2,5,6-tetrahydropyridin-3-yl)-1H-indazole]		9	84.5		79.8	246	129	
COc1ccc2[nH]nc(C3=CCCN(C)C3)c2c1 [Example 104, 5-methoxy-3-(1-methyl-1,2,5,6-tetrahydropyridin-3-yl)-1H-indazole]		82.8	88.2		83.7	501	681	
Cc1cccc2c(C3=CCCN(C)C3)n[nH]c12 [Example 105, 7-methyl-3-(1-methyl-1,2,5,6-tetrahydropyridin-3-yl)-1H-indazole]		35.4	75.4		45.7	1340	432	

— patent publication US20260265246A1 (ICAHN SCHOOL OF MEDICINE AT MOUNT SINAI, priority 2021, published 2026)
